Source: patent US20250099485A1, “COMPOSITIONS FOR PROMOTING HAIR GROWTH” (ESTETRA SRL, priority 2021, published 2025)

Experiments:
[1] = system: primary human epidermal keratinocytes; test: Keratinocyte scratch assay; format: cell-based; conditions: 10^−10M and 10^−7M, culture condition with 15% HKGS, compared with E2
Procedure: Human skin was transferred to the laboratory in holding media (DMEM containing 4% penicillin-streptomycin and Amphotericin B solution) within 30 minutes of collection. Once defatted, the skin was rinsed in HBSS with 4% PSA followed by DPBS without antibiotics, then cut into thin strips and floated on 0.2% Dispase II in DPBS overnight at 4° C., followed by manual separation of the epidermis from the dermis. Primary human epidermal keratinocytes and primary human dermal fibroblasts were then isolated.
Confluent wells of both primary keratinocytes and fibroblasts were subjected to a highly validated scratch wounding procedure (using a 1 mL sterile filter tip). Post-scratching, cells were rinsed with DPBS and cell-specific media containing treatments added to each well. Cells were imaged on a ptychographic live cell imaging platform (Livecyte 2TM, Phasefocus) for 24-48 hours. Automated tracking of individual unlabeled cells will be combined with 3D cell measurements to quantify a range of wound-relevant cell parameters including scratch closure rate.
Dose range finding experiments were conducted with E4 (10^−10M to 10^−6M) and E2 with and without Mitomycin C (MMC, to inhibit proliferation) using vehicle as negative controls.

[2] = system: human hair follicles (HF); test: Hair follicle organ culture: microscopic hair cycle staging; format: cell-based; conditions: vs vehicle
Procedure: (§1) 12-44 full-length frontotemporal hair follicles (HF) were obtained from four human female donors >50 years old. Donors were caucasian female subjects […], respectively (Donor 1: 12 temporal anagen HFs; Donor 2: 29; Donor 3: 44; Donor 4: 32). After microdissection from skin as described (Edelkamp et al., Methods Mol Biol, 2020, 2154:105-119; and Langan et al., Exp Dermatol, 2015, December; 24(12):903-1), HFs were placed in adequate culture medium and allowed a 24 h rest period to allow them to recover from the trauma of microdissection. Test substance (either vehicle (0.3% EtOH) or E4 at concentrations of 30 μM, 3 μM or 300 nM) was added to the medium at the end of the 24 h. Total culturing time was 5-7 days depending on the studied parameters and the experimental question. The experimental design for the hair follicle organ culture experiment is depicted in FIG. 12. Longer term culture experiments may be used to analyze the capacity to delay the onset of catagen.
Hair cycle staging and calculation of hair cycle score is indicative of hair cycle progression and anagen-catagen transition (Langan et al., Exp Dermatol, 2015). Hair cycle staging and hair cycle score was performed at the end of the culture. The hair cycle stage of each HF was determined according to several established macroscopic and microscopic parameters (Langan et al Exp Dermatol, 2015). For macroscopic hair cycle stage, bright field images of the living HFs were taken with a digital microscope (Keyence VHX 900). Microscopic hair cycle staging was determined using Ki 67/TUNEL immunohistology and Masson Fontana histochemistry. Hair cycle staging was analyzed by calculating the percentage of HFs in each hair cycle stage. Hair cycle score was determined by giving an arbitrary score to each hair cycle stage as following: anagen: 100, early catagen: 200, mid catagen: 300, late catagen: 400, dystrophic 500, with a higher score being indicative of a higher number of HFs in catagen.

[3] = female, Lister Hooded, rat, in vivo, po, 15 mg/kg, 0.5 h
Procedure: Tissue distribution was determined in female rats (partially pigmented and non-pigmented) using [^14C]-estetrol.
A group of six female Lister Hooded rats each received a single oral dose of [^14C]-estetrol. At each selected time (see below) one animal was killed (by overdose of CO2) followed by immediate snap freezing in hexane/solid CO2. The carcasses were retained for examination of the tissue distribution of radioactivity using the technique of quantitative whole body autoradiography (QWBA).
Times for analysis were: (0.5, 8, and 24 hours, 7, 14 and 35 days).
Frozen carcasses were subjected to whole-body autoradiography.
Where concentrations are reported, radioactivity was assumed to be associated with [^14C]-estetrol or any metabolic products derived from [^14C]-estetrol. The specific activities of the dosed test compounds were used for the calculation of concentrations in all cases. Recoveries of radioactivity are reported as percentage of administered radioactivity (% dose). Radioactivity concentrations are also reported as μg equivalents/g.

[4] = system: Normal Human Dermal Fibroblasts (NHDFs); test: Colonization of acellular area (IBIDI gap closure), fibroblasts; format: cell-based; conditions: for NHDF Migration (+MMC) (colonization of acellular area vs ethanol control): presence of mitomycin C, 6 h and 24 h contact, cell gives time of significant effect
Procedure: The study consists in an in vitro assay aiming to evaluate the properties of E4 and E2 at 4 concentrations each on keratinocytes and fibroblasts. In this assay, the measurement of the colonization of a standard acellular surface generated from a confluent monolayer of cells using a dedicated culture device (IBIDI chamber) is performed. The assay is performed in absence and in presence of a proliferation inhibitor to focus on cell proliferation and migration or on migration only, respectively.
Normal Human foreskin-derived Dermal Fibroblast (NHDFs, ATCC) cells were grown in phenol-free Dulbecco's Modified Eagle Medium (DMEM, ThermoFisher Scientific) supplemented with 10% of Foetal Bovine Serum (FBS, ThermoFisher Scientific), L-glutamine and antibiotics. The cells were maintained in a humidified incubator at 37° C. with a 5% CO2 atmosphere.
Cells were plated in 2-well silicone inserts with a defined cell free gap (IBIDI chambers; IBIDI GmbH, 80209) that was previously inserted on 12-well culture plates. This culture device allows to create a standardized 500 μm±100 μm cell free gap for monitoring cell colonization. 24 h after seeding, when the culture reached high confluency, cells in the insert were treated, or not, with mitomycin C (MMC) at 10 μg/ml during 2 h. After these 2 hours, the insert was removed, and cells were treated with E2 or E4 in presence or not of MMC for additional 2 h. Then, if appropriate, the culture medium was removed and cells were treated with E2 or E4 for 22 h, in absence of MMC.
For the assay, keratinocytes were plated in Epilife medium without HKGS and all the treatments were performed in this medium. Fibroblasts were plated in DMEM medium containing only 2.5% of FBS and the treatments were performed in absence of FBS.
E2 and E4 were applied at 4 concentrations each (10^−7M, 10^−8M, 10^−9M, 10^−10M). In parallel, cells were treated with a positive control (HKGS 1% for human keratinocytes and PDGF-BB at 10 ng/ml for human fibroblasts).
To monitor cell colonization and to evaluate the gap closure rate, pictures of the gap were taken after different times: at time 0 h, corresponding to the beginning of the treatment with E2 or E4 and to the removal of the culture insert, at time 6 h and at time 24 h (corresponding to the end of the treatments with E2 or E4). Pictures were taken with a microscope Zeiss (Axiover 25-10× objective) and with a camera Invenio2EIII (DeltaPix—Lux-Optic). The colonized areas were quantified from the pictures by the use of the WimAsis platform—WimScratch software. For each insert, 3 pictures were taken at each time. As each condition was performed in triplicates, it means a total of 9 pictures per condition and per time point of acquisition

DP fibroblasts = test: Hair follicle organ culture: DP fibroblast emigration; format: cell-based, human; conditions: vs vehicle
Procedure: as §1
The DP resident fibroblasts are subjected to migration in the transition between anagen and catagen phase (Hawkshaw et al., Journ of Invest Dermatol, 2015, 135(8):2129-2132). In catagen onset, DP fibroblasts emigrate to the dermal cup through the DP stalk, whereas at anagen induction, they immigrate back in the DP. Quantifying the number of DP fibroblasts present in the DP stalk and in the DP (Kloepper et al., Exp Dermatol, 2010, March; 19(3):305-12) is therefore a direct readout for anagen induction or catagen promotion. K 15 expression—Stem cells.

C[C@]12CC[C@@H]3c4ccc(O)cc4CC[C@H]3[C@@H]1[C@@H](O)[C@@H](O)[C@@H]2O [E4, 1,3,5 (10)-estratrien-3,15alpha,16alpha,17beta-tetrol]
impact on keratinocyte migration, scratch assay [1]: seems higher than the impact of E2 | prolonged anagen (microscopic hair cycle staging) ([2]; 300 nM): tendentially | prolonged anagen (microscopic hair cycle staging) ([2]; 3 μM): significantly | prolonged anagen (microscopic hair cycle staging) ([2]; 30 μM): tendentially | Total amount of radioactivity in tissue, Skin (non-pigmented) [3]: 1.1 % dose administered/tissue | Total amount of radioactivity in tissue, Skin (pigmented) [3]: 1.7 % dose administered/tissue | NHDF Migration (+MMC) (colonization of acellular area vs ethanol control) ([4]; 10^−7M): significantly increase the colonization of the acellular area | NHDF Migration (+MMC) (colonization of acellular area vs ethanol control) ([4]; 10^−8M): significantly increase the colonization of the acellular area | NHDF colonization of the cell-free area ([4]; absence of MMC, all four concentrations): not able to significantly increase | density of cells in the inductive dermal cup (DP fibroblasts; 300 nM, 3 μM, 30 μM): no significant impact | total number of cells in the DP stalk (DP fibroblasts; 300 nM): significantly reduced | total number of cells in the DP stalk (DP fibroblasts; 3 μM): significantly reduced | density of cells in the DP stalk (DP fibroblasts; all concentrations): tendentially decreased | density of cells in the DP (DP fibroblasts; all tested concentrations): did not strikingly affect
